Values of other authors in patent publication US8703900B2 (BioAmber Inc., priority 2010, dated 2014).

Conditions: first acid group

- pKa1: 4.43
SMILES: O=C(O)CCCCC(=O)O [AA, adipic acid]
